According to publication PMC11274128, “Modification and Synergistic Studies of a Novel Frog Antimicrobial Peptide against Pseudomonas aeruginosa Biofilms” (Antibiotics, 2024):
Where two headings read alike, the source gives them in different places. Bridge positions count the residues as written; N and C are the ends. Ends that are not written are not given here.

Columns and labels:
Yeast = test: Geometric mean of MICs and TI value; format: cell-based, Candida albicans; details: C. albicans ATCC 10231
Protocol: (§1) The therapeutic potential of antimicrobial agents was valued based on their selectivity toward bacteria in reference to erythrocytes. The TI value was calculated from the results of antibacterial and haemolysis experiments of peptides using the following formula:TI value = HC10 / GMMICs.
(§2) GM was the geometric mean of MICs against all tested bacteria.

C. albicans (ATCC 10231) = format: cell-based, Candida albicans; details: yeast C. albicans ATCC 10231; for MIC: 37 °C, nine repeats of three independent experiments; for MBC: lowest concentration killing 99.9% of inoculum
Source text: (§3) The minimum inhibitory concentration (MIC) is the minimum concentration of an antimicrobial agent that prevents the visible growth of a bacterium or bacteria. The MIC is an important piece of data for research on new antimicrobial agents and helps in the effective selection of antibiotics to improve the success of treatment. The minimum bactericidal concentration (MBC) is defined as the lowest antibiotic concentration that kills 99.9% of the inoculum. This study mainly contained eight different microorganisms, which were Staphylococcus aureus (ATCC 6538), methicillin-resistant Staphylococcus aureus (NCTC 12493), Enterococcus faecalis (NCTC 12697), Escherichia coli (ATCC 8739), Klebsiella pneumoniae (ATCC 43816), Pseudomonas aeruginosa (ATCC CRM 9027), Acinetobacter baumannii (BAA 747), and Candida albicans (ATCC 10231). The bacteria were incubated in the compatible medium at 37 °C overnight.

[1] = test system: P. aeruginosa (ATCC CRM 9027); test: microbe, parasite or virus in culture; format: cell-based, Pseudomonas aeruginosa; details: planktonic P. aeruginosa ATCC CRM 9027; for MIC: 37 °C, nine repeats of three independent experiments; for MBC: lowest concentration killing 99.9% of inoculum
Source text: as §3

horse red blood cells = horse red blood cells in PBS, 37 °C, 2 h, absorbance 570 nm; positive control 0.1% Triton
Protocol: The pure peptide was dissolved in PBS and then two-fold diluted to obtain a series of concentrations: 512, 256, 128, 64, 32, 16, 8, 4, and 2 μM. A positive control (0.1% Triton) and blank control (PBS) were used. Two millilitres of fresh horse red blood cells were washed in PBS until the supernatant became colourless and clear, and the mixture was then thoroughly mixed. Each mixture contained 100 μL of peptide solution or controls and 100 μL of horse red blood cells, which were then incubated at 37 °C for 2 h and centrifuged at 930× g for 10 min. Subsequently, 100 μL of supernatant from each tube was transferred into a 96-well plate, and the plate reader measured the absorbance at a wavelength of 570 nm. The haemolysis rate was calculated using the following formula:Percentage Haemolysis= (ASample − ABlank)/(APositive − ABlank) × 100%

E. faecalis (NCTC 12697) = test: microbe, parasite or virus in culture; format: cell-based, Enterococcus faecalis; details: planktonic E. faecalis NCTC 12697; for MIC: 37 °C, nine repeats of three independent experiments; for MBC: lowest concentration killing 99.9% of inoculum
Source text: as §3

MRSA (NCTC 12493) = test: microbe, parasite or virus in culture; format: cell-based, methicillin-resistant Staphylococcus aureus; details: planktonic MRSA NCTC 12493; for MIC: 37 °C, nine repeats of three independent experiments; for MBC: lowest concentration killing 99.9% of inoculum
Source text: as §3

E. coli (ATCC 8739) = test: microbe, parasite or virus in culture; format: cell-based, Escherichia coli; details: planktonic E. coli ATCC 8739; for MIC: 37 °C, nine repeats of three independent experiments; for MBC: lowest concentration killing 99.9% of inoculum
Source text: as §3

S. aureus (ATCC 6538) = test: microbe, parasite or virus in culture; format: cell-based, Staphylococcus aureus; details: planktonic S. aureus ATCC 6538; for MIC: 37 °C, nine repeats of three independent experiments; for MBC: lowest concentration killing 99.9% of inoculum
Source text: as §3

[2] = test system: K. pneumoniae (ATCC 43816); test: microbe, parasite or virus in culture; format: cell-based, Klebsiella pneumoniae; details: planktonic K. pneumoniae ATCC 43816; for MIC: 37 °C, nine repeats of three independent experiments; for MBC: lowest concentration killing 99.9% of inoculum
Source text: as §3

A. baumannii (BAA 747) = test: microbe, parasite or virus in culture; format: cell-based, Acinetobacter baumannii; details: planktonic A. baumannii BAA 747; for MIC: 37 °C, nine repeats of three independent experiments; for MBC: lowest concentration killing 99.9% of inoculum
Source text: as §3

G− Bacteria = test: Geometric mean of MICs and TI value; format: cell-based; details: geometric mean of MICs against tested Gram-negative bacteria
Protocol: as §1, §2

G+ Bacteria = test: Geometric mean of MICs and TI value; format: cell-based; details: geometric mean of MICs against tested Gram-positive bacteria
Protocol: as §1, §2

Substance | GM (geometric mean of MICs), Yeast (Yeast) [µM] | MIC (C. albicans (ATCC 10231)) [µM] | MBC (C. albicans (ATCC 10231)) [µM] | MIC ([1]; read-out: MIC) [µM] | MBC ([1]; read-out: MBC) [µM] | HC10 (horse red blood cells) [µM] | MIC (E. faecalis (NCTC 12697)) [µM] | MBC (E. faecalis (NCTC 12697)) [µM] | MIC (E. coli (ATCC 8739); read-out: MIC) [µM] | MBC (E. coli (ATCC 8739); read-out: MBC) [µM] | MIC (S. aureus (ATCC 6538)) [µM] | MBC (S. aureus (ATCC 6538)) [µM] | MIC ([2]; read-out: MIC) [µM] | MBC ([2]; read-out: MBC) [µM] | MIC (A. baumannii (BAA 747)) [µM] | MBC (A. baumannii (BAA 747)) [µM] | GM (geometric mean of MICs), G− Bacteria (G− Bacteria) [µM] | GM (geometric mean of MICs), G+ Bacteria (G+ Bacteria) [µM] | MIC (MRSA (NCTC 12493)) [µM] | MBC (MRSA (NCTC 12493)) [µM] | further results
GLLRGVLGAGKKIVCGLSGRC (disulfide 15-21 (inferred)) [Peptide 2057-C, N-terminus modified analogue of Nigrosin-6VL] | 256.00 | > 128 | > 128 | 64 | 128 | >256 | > 128 | > 128 | 16 | 32 | 128 | > 128 | 64 | 128 | > 128 | > 128 | 64.00 | 128.00 |  |  | MIC (MRSA (NCTC 12493); read-out: MIC): 64 µM; MBC (MRSA (NCTC 12493); read-out: MBC): 128 µM
GLLSGVLGAGKKIVAGLSGRA [Peptide 1924-A] | 64.00 | 64 | 128 |  |  | >256 | > 128 | > 128 | 64 | 128 | 128 | > 128 | 64 | 128 | > 128 | > 128 | 107.63 | 203.19 | > 128 | > 128 | MIC [1]: 128 µM; MBC [1]: > 128 µM
GLLSGVLGAGKKIVCGLSGR- [Peptide 1885-R, Rana Box modified analogue of Nigrosin-6VL] | 256.00 | > 128 | > 128 | 32 | 64 | >256 | > 128 | > 128 | 32 | 64 | 128 | > 128 | 32 | 64 | 128 | > 128 | 45.25 | 128.00 | 64 | 64 | 
GLLSGVLGAGKKIVGLSGRC [Peptide 1885-C] | 256.00 | > 128 | > 128 | 64 | 128 | >256 | > 128 | > 128 | 16 | 32 | > 128 | > 128 | 64 | 128 | > 128 | > 128 | 64.00 | 256.00 | > 128 | > 128 | 
H-GLLSGVLGAGKKIVGLSGR-OH [Peptide 1782-R] | 256.00 | > 128 | > 128 |  |  | >256 | > 128 | > 128 |  |  | > 128 | > 128 |  |  | > 128 | > 128 | 215.27 | 256.00 | > 128 | > 128 | MIC [1]: > 128 µM; MBC [1]: > 128 µM; MIC (E. coli (ATCC 8739)): 128 µM; MBC (E. coli (ATCC 8739)): > 128 µM; MIC [2]: > 128 µM; MBC [2]: > 128 µM
